Laboratory results from paper PMC10281575, “PfCRT mutations conferring piperaquine resistance in falciparum malaria shape the kinetics of quinoline drug binding and transport” (PLOS Pathogens, 2023).
“And” between values parts separate entries of the source, which are not always exact repeats. Equal entries are not always repeated.

Target: T1, PfCRT^Dd2 (Plasmodium falciparum, UniProt Q8IBZ9, A220S/I356T/K76T/M74I/N326S/N75E/Q271E/R371I)
T1 sequence (Q8IBZ9 1-424 M74I/N75E/K76T/A220S/Q271E/N326S/I356T/R371I): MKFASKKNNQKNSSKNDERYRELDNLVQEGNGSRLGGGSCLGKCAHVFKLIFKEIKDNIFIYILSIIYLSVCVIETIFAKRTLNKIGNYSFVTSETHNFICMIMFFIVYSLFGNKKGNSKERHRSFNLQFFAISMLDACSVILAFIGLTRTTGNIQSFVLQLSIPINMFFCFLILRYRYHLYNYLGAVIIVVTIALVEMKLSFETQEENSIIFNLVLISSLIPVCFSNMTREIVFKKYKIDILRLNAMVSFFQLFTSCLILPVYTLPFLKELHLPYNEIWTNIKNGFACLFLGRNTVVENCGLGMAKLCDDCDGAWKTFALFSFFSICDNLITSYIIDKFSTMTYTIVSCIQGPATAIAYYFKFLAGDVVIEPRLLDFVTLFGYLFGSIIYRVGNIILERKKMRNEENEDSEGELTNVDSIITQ
Assay: Competition plot (Vtotal versus proportion of PPQ in CQ/PPQ mixtures), PfCRT^Dd2
Type: cell-based
Parameters: expressed in transfected cells; host or cells: Xenopus laevis oocytes injected with in vitro transcribed RNA (pSP64T)
Details: for competition plot result (binding sites): CQ/PPQ mixtures, curve with a maximum
Method: To test this hypothesis, we performed competition plot experiments, in which the enzyme or carrier is exposed to substrate mixtures that give the same transport rate for different substrates. The experiment is performed with substrate A labeled and then repeated with substrate B labeled.
The competition plot tests whether two substrates bind to the same site or distinct sites on an enzyme or transporter. A competitive reaction would yield data points that lie on a horizontal line, whereas allosteric interactions would reveal a curved relationship. […] Vtotal was subsequently analyzed as a function of the proportion of PPQ in the mixture (P). For more details see Materials and Methods. The mean ± SEM of at least 3 independent biological replicates are shown.
The competition plot was performed as described elsewhere. […] These corresponded to values of P equal to 0, 0.25, 0.5, 0.75, 0.9 and 1. A plot of Vtotal as a function of P yielded the competition plots. If both substrates bind to the same site, then a constant Vtotal is expected across all P values (e.g. data lies on a horizontal line). If the substrates bind to different sites, and they inhibit each other’s transport, it is expected that the curve is concave with either a minimum or a maximum.

[1] = CQ/PPQ mixture, P = 0.25, single replicates
[2] = CQ/PPQ mixture, P = 0.5, single replicates
[3] = CQ/PPQ mixture, P = 0.75, single replicates
[4] = CQ/PPQ mixture, P = 0.9, single replicates

Compound	PfCRTDd2-mediated CQ transport P = 0 (CQ/PPQ mixture, P = 0, single replicates)	PfCRTDd2-mediated CQ transport P = 0.25 [1]	PfCRTDd2-mediated CQ transport P = 0.5 [2]	PfCRTDd2-mediated CQ transport P = 0.75 [3]	PfCRTDd2-mediated CQ transport P = 0.9 [4]	competition plot result (binding sites)	PfCRTDd2-mediated PPQ transport P = 0.25 [1]	PfCRTDd2-mediated PPQ transport P = 0.5 [2]	PfCRTDd2-mediated PPQ transport P = 0.75 [3]	PfCRTDd2-mediated PPQ transport P = 0.9 [4]	PfCRTDd2-mediated PPQ transport P = 1 (CQ/PPQ mixture, P = 1, single replicates)
CCN(CC)CCCC(C)Nc1ccnc2cc(Cl)ccc12 (stereo not drawn) [CQ, chloroquine]	20.79 pmol oocyte-1 h-1 and 22.58 pmol oocyte-1 h-1 and 19.58 pmol oocyte-1 h-1 and 16.43 pmol oocyte-1 h-1	18.03 pmol oocyte-1 h-1 and 18.73 pmol oocyte-1 h-1 and 18.01 pmol oocyte-1 h-1	16.36 pmol oocyte-1 h-1 and 12.29 pmol oocyte-1 h-1	7.91 pmol oocyte-1 h-1 and 7.73 pmol oocyte-1 h-1 and 11.16 pmol oocyte-1 h-1 and 8.67 pmol oocyte-1 h-1	4.33 pmol oocyte-1 h-1 and 3.12 pmol oocyte-1 h-1 and 4.83 pmol oocyte-1 h-1	bind at different sites					
Clc1ccc2c(N3CCN(CCCN4CCN(c5ccnc6cc(Cl)ccc56)CC4)CC3)ccnc2c1 [PPQ, piperaquine]						bind at different sites	3.23 pmol oocyte-1 h-1 and 2.01 pmol oocyte-1 h-1 and 4.17 pmol oocyte-1 h-1	8.67 pmol oocyte-1 h-1 and 8.62 pmol oocyte-1 h-1 and 9.88 pmol oocyte-1 h-1	14.14 pmol oocyte-1 h-1 and 12.26 pmol oocyte-1 h-1 and 14.54 pmol oocyte-1 h-1	15.27 pmol oocyte-1 h-1 and 15.64 pmol oocyte-1 h-1 and 17.36 pmol oocyte-1 h-1 and 20.19 pmol oocyte-1 h-1	17.53 pmol oocyte-1 h-1 and 18.98 pmol oocyte-1 h-1 and 22.10 pmol oocyte-1 h-1
